Measured values from PMC6576746, “Rational discovery of dual-indication multi-target PDE/Kinase inhibitor for precision anti-cancer therapy using structural systems pharmacology” (PLoS Computational Biology, 2019).

Assays:
Assay in all cases: biochemical
Design in all cases: DiscoverX KinomeScan competition binding assay across human kinases; per cent of control at 10 and 100 uM
[1] = biological target: SGK2 (Homo sapiens, UniProt Q9HBY8); conditions: competition binding, % of control; read-out: Percent Control (100 uM Levosimendan)
In short: (§1)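 Binding is expressed as %control, normalised between positive and negative control signals. The compound (levosimendan) was tested at 10 μM and 100 μM in the DiscoverX KinomeScan competition binding format against human kinases.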

[2] = biological target: WEE2 (Homo sapiens, UniProt P0C1S8); conditions: competition binding, % of control; read-out: Percent Control (100 uM Levosimendan)
In short: as §1

[3] = biological target: CAMK1 (Homo sapiens, UniProt Q14012); conditions: competition binding, % of control; read-out: Percent Control (100 uM Levosimendan)
In short: as §1

[4] = biological target: PRKCQ (Homo sapiens, UniProt Q04759); conditions: competition binding, % of control
In short: as §1

[5] = biological target: GRK4 (Homo sapiens, UniProt P32298); conditions: competition binding, % of control; read-out: Percent Control (100 uM Levosimendan)
In short: as §1

[6] = biological target: T1, PCTK2 (Homo sapiens, UniProt Q00537); conditions: competition binding, % of control; read-out: Percent Control (100 uM Levosimendan)
T1 construct: gene CDK17
In short: as §1

[7] = biological target: PAK1 (Homo sapiens, UniProt Q13153); conditions: competition binding, % of control; read-out: Percent Control (100 uM Levosimendan)
In short: as §1

[8] = biological target: T2, MLK1 (Homo sapiens, UniProt P80192); conditions: competition binding, % of control; read-out: Percent Control (100 uM Levosimendan)
T2 construct: gene MAP3K9
In short: as §1

[9] = biological target: FER (Homo sapiens, UniProt P16591); conditions: competition binding, % of control; read-out: Percent Control (100 uM Levosimendan)
In short: as §1

[10] = biological target: PKN2 (Homo sapiens, UniProt Q16513); conditions: competition binding, % of control
In short: as §1

[11] = biological target: BRSK1 (Homo sapiens, UniProt Q8TDC3); conditions: competition binding, % of control; read-out: Percent Control (100 uM Levosimendan)
In short: as §1

[12] = biological target: ROCK1 (Homo sapiens, UniProt Q13464); conditions: competition binding, % of control; read-out: Percent Control (100 uM Levosimendan)
In short: as §1

[13] = biological target: EPHB6 (Homo sapiens, UniProt O15197); conditions: competition binding, % of control
In short: as §1

[14] = biological target: RIPK2 (Homo sapiens, UniProt O43353); conditions: competition binding, % of control; read-out: Percent Control (100 uM Levosimendan)
In short: as §1

[15] = biological target: TNK2 (Homo sapiens, UniProt Q07912); conditions: competition binding, % of control; read-out: Percent Control (100 uM Levosimendan)
In short: as §1

[16] = biological target: T3, JAK2(JH1domain-catalytic) (Homo sapiens, UniProt O60674); conditions: competition binding, % of control
T3 construct: JH1domain-catalytic
In short: as §1

[17] = biological target: T4, RSK1(Kin.Dom.1-N-terminal) (Homo sapiens, UniProt Q15418); conditions: competition binding, % of control; read-out: Percent Control (100 uM Levosimendan)
T4 construct: gene RPS6KA1; Kin.Dom.1-N-terminal
In short: as §1

[18] = biological target: EGFR(G719C) (Homo sapiens, UniProt P00533, G719C); conditions: competition binding, % of control
In short: as §1

[19] = read-out: Percent Control (10 uM Levosimendan)
[20] = read-out: Percent Control (100 uM Levosimendan)

EGFR(G719C), sequence (P00533 whole entry G719C): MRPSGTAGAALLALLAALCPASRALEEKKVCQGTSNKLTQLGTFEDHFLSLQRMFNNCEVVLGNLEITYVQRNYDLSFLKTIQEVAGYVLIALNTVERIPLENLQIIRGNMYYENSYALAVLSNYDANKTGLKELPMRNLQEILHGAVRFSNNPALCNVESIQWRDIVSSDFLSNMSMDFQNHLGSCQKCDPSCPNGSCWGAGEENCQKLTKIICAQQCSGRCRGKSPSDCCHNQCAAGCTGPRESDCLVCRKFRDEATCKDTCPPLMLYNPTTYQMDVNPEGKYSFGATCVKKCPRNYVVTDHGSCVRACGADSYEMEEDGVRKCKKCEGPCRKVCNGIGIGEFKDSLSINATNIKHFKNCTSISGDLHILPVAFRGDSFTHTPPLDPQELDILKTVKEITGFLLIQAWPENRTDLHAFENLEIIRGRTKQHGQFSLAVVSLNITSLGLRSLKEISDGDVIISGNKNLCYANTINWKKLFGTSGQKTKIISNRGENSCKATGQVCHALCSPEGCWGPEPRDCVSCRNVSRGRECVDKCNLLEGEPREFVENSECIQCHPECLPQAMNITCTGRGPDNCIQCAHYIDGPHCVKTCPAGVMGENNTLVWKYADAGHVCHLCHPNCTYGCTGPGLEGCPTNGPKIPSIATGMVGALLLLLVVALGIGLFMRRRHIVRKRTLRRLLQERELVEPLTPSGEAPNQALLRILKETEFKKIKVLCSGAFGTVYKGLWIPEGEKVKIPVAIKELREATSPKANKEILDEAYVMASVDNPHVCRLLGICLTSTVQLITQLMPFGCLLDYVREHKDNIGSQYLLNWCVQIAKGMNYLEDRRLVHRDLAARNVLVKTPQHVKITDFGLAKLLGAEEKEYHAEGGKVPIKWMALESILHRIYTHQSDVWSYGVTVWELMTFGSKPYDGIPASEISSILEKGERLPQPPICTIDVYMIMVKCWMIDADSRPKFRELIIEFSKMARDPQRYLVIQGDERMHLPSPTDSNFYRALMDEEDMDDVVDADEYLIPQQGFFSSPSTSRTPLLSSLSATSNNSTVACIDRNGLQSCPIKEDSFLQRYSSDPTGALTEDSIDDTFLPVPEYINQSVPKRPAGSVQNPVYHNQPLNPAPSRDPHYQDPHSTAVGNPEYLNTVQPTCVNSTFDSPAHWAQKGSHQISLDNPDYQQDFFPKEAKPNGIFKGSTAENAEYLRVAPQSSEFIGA
EPHB6, sequence (O15197 whole entry): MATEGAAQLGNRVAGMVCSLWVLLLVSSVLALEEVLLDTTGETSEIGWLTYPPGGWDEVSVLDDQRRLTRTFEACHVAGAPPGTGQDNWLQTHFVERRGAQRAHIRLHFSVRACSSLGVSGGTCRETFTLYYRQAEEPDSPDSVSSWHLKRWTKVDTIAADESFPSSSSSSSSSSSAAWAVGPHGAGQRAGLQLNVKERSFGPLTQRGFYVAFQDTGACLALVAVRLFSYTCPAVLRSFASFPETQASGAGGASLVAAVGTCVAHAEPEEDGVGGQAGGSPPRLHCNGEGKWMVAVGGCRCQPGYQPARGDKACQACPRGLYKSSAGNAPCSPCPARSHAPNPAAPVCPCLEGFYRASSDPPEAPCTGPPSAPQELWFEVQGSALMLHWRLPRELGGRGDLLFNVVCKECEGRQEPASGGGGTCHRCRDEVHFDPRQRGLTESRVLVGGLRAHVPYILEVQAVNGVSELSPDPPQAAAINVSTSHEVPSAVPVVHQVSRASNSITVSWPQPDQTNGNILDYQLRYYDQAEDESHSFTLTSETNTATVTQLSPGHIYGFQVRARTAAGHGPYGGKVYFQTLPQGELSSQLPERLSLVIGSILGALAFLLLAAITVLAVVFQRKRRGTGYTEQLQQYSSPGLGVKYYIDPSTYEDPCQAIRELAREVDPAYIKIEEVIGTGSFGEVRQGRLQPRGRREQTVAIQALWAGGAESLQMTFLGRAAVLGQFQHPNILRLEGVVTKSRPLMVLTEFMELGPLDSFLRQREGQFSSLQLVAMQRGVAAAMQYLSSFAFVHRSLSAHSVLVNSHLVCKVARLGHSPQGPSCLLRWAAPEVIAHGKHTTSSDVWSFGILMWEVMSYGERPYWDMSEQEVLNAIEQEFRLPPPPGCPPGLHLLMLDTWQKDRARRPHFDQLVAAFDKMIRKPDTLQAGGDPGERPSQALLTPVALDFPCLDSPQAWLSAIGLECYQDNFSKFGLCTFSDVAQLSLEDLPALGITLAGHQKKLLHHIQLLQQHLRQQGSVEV
PRKCQ, sequence (Q04759 whole entry): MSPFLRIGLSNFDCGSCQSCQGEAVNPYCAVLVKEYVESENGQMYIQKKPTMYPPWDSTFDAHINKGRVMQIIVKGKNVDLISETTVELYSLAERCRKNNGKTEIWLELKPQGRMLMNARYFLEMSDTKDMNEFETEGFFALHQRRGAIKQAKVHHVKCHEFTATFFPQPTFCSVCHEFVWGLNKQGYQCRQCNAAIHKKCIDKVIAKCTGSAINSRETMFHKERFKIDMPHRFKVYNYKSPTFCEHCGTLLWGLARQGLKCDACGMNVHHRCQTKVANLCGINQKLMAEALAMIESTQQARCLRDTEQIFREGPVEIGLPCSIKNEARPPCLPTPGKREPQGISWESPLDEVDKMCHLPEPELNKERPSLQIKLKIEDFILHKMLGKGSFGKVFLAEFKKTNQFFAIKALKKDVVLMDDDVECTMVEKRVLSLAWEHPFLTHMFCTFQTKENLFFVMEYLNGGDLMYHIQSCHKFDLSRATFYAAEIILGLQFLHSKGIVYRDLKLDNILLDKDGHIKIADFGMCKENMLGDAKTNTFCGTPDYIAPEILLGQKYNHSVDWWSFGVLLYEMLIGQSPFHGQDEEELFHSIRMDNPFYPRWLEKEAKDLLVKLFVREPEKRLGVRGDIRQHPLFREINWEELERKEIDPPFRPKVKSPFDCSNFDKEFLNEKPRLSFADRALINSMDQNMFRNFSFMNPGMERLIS
T3 sequence (O60674 whole entry): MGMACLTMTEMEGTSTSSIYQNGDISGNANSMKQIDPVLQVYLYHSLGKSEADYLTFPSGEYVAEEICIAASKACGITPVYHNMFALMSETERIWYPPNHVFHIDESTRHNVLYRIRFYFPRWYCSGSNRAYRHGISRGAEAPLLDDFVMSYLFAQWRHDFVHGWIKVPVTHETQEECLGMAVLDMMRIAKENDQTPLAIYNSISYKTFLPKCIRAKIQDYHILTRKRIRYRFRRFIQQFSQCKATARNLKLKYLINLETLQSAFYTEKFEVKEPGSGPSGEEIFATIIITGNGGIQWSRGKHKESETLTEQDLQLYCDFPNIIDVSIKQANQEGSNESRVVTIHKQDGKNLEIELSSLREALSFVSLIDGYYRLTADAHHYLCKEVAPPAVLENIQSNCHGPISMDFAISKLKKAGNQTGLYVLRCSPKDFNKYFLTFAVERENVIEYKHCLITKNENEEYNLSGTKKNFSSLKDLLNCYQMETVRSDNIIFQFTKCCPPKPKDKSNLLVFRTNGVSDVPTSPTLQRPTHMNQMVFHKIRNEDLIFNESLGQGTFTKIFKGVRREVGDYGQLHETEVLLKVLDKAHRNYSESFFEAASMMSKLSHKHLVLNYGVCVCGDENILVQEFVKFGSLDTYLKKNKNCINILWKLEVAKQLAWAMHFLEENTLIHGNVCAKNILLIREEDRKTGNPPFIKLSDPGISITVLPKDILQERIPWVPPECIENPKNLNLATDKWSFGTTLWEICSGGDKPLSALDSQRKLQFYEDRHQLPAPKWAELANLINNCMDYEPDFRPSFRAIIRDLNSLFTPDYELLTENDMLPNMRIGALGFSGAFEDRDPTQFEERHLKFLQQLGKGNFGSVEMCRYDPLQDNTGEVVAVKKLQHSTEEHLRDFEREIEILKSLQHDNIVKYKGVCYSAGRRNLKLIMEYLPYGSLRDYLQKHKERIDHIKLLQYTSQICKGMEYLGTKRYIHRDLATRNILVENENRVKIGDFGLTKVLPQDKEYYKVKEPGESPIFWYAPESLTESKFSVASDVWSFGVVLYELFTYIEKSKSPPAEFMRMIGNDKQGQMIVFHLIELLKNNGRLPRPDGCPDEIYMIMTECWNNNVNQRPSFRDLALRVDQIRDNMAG
PKN2, sequence (Q16513 whole entry): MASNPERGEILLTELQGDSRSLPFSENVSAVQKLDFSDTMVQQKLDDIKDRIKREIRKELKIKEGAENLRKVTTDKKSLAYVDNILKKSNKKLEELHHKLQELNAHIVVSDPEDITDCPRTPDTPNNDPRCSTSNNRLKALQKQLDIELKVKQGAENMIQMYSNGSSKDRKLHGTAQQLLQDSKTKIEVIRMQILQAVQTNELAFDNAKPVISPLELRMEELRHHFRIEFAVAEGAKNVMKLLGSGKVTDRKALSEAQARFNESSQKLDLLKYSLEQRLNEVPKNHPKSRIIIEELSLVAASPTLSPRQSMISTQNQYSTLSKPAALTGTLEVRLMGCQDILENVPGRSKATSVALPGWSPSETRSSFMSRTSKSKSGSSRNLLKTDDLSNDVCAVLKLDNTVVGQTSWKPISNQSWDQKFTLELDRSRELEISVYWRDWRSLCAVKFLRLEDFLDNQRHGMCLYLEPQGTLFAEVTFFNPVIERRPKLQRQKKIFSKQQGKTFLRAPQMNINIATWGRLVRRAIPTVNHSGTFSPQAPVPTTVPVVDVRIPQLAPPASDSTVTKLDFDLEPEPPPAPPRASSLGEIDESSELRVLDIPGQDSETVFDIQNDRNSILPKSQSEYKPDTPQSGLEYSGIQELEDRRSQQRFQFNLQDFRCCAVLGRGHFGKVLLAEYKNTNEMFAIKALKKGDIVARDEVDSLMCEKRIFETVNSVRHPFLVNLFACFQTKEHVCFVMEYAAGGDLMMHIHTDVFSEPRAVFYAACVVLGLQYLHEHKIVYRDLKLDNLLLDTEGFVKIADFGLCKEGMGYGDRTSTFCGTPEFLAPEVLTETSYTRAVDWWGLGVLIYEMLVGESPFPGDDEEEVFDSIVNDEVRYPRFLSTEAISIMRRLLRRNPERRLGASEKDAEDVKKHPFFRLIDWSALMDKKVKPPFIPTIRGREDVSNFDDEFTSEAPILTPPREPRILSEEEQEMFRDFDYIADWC

- remaining binding at 100 µM [1]: 90%
- remaining binding at 100 µM [2]: 76%
- remaining binding at 100 µM [3]: 77%
- remaining binding at 10 µM [4, 19]: 5.2%
- remaining binding at 100 µM [4, 20]: 36%
- remaining binding at 100 µM [5]: 100%
- remaining binding at 100 µM [6]: 100%
- remaining binding at 100 µM [7]: 73%
- remaining binding at 100 µM [8]: 79%
- remaining binding at 100 µM [9]: 100%
- remaining binding at 10 µM [10, 19]: 94%
- remaining binding at 100 µM [10, 20]: 49%
- remaining binding at 100 µM [11]: 100%
- remaining binding at 100 µM [12]: 90%
- remaining binding at 10 µM [13, 19]: 56%
- remaining binding at 100 µM [13, 20]: 16%
- remaining binding at 100 µM [14]: 91%
- remaining binding at 100 µM [15]: 86%
- remaining binding at 10 µM [16, 19]: 88%
- remaining binding at 100 µM [16, 20]: 49%
- remaining binding at 100 µM [17]: 84%
- remaining binding at 10 µM [18, 19]: 49%
- remaining binding at 100 µM [18, 20]: 10%
Structure (SMILES): C[C@@H]1CC(=O)NN=C1c1ccc(NN=C(C#N)C#N)cc1 [levosimendan]
